Reference: ChEMBL document CHEMBL1127222, “Protection of the peptide bond against -chymotrypsin by the prodrug approach” (Bioorg Med Chem Lett, 1993)

Columns and labels:
Type in all cases: ADME
[1] = Half life period in buffer solution at pH 7.4: found to be stable
[2] = Half life period in the presence of alpha-chymotrypsin at the concentration of 0.25 mg/ml
[3] = Half life period in the presence of alpha-chymotrypsin at the concentration of 0.5 mg/ml
[4] = Half life period in the presence of alpha-chymotrypsin at the concentration of 1.0 mg/mL
[5] = Half life period in buffer solution at pH 7.4

| SMILES | T1/2 [1] | half-life [2] | half-life [3] | half-life [4] | half-life [5] |
| --- | --- | --- | --- | --- | --- |
| CC(=O)NC(Cc1ccccc1)C(N)=O (stereo unspecified) | Stable | 9.6 h | 4.9 h | 2.3 h |  |
| CC(=O)N(CO)C(Cc1ccccc1)C(=O)NCc1ccccc1 (stereo unspecified) |  | 1.08 h | 1.07 h | 1.05 h | 1.05 h |
| CC(=O)N(CO)C(Cc1ccccc1)C(N)=O (stereo unspecified) |  | 0.55 h | 0.583 h | 0.533 h | 0.633 h |
| CC(=O)NC(Cc1ccccc1)C(=O)NCc1ccccc1 (stereo unspecified) | Stable | 15 h | 7.5 h | 3.9 h |  |
